Relative viability data for 8 cell lines are collected here from the supplement of paper PMC10307832.

Holding throughout (assay): relative viability (nuclei count vs DMSO), 5 days (fraction); higher = more cells survive
Compound in the assay “Fedratinib + Bortezomib”: Cc1cnc(Nc2ccc(OCCN3CCCC3)cc2)nc1Nc1cccc(S(=O)(=O)NC(C)(C)C)c1 [Fedratinib] + CC(C)C[C@H](NC(=O)[C@H](Cc1ccccc1)NC(=O)c1cnccn1)B(O)O [Bortezomib] (partner 0.002 µM)
In outline: (§1)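 Relative viability was taken as the ratio of nuclei in treated wells to nuclei in vehicle wells. Lung cancer cell lines in 1536-well plates received compounds by pin tool one day after seeding, either one drug alone or a fixed anchor-drug dose plus five library-drug doses (not always all listed) in √10 steps. Nuclei were counted on 4× images after 5 days of treatment, and values are medians of duplicate plates.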

Compound in the assay “Fedratinib + AZD7762”: Cc1cnc(Nc2ccc(OCCN3CCCC3)cc2)nc1Nc1cccc(S(=O)(=O)NC(C)(C)C)c1 [Fedratinib] + NC(=O)Nc1cc(-c2cccc(F)c2)sc1C(=O)N[C@H]1CCCNC1 [AZD7762] (partner 0.2 µM)
In outline: as §1

Compound in another assay: Cc1cnc(Nc2ccc(OCCN3CCCC3)cc2)nc1Nc1cccc(S(=O)(=O)NC(C)(C)C)c1 [Fedratinib]
In outline:
(§2)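 Lung cancer cell lines in 1536-well plates were kept overnight at 37 °C, then pinned with five library-drug doses (not always all listed) spaced by √10 on vehicle-anchored plates. After 5 days without medium change, cells were fixed, permeabilised and Hoechst-stained in one step, imaged at 4×, and nuclei were counted with MetaXpress. Viability is treated-well nuclei divided by vehicle-well nuclei, taken as the median over plates. Plates passed only with control CV below 25% and at least one doubling.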

Compound in another assay: COC1=CC=C(C=C1)COC2=C(C=C(C=C2)CC3=CN=C(N=C3N)N)OC [GW-2580]
In outline:
as §2

Compound in the assay “GW-2580 + Trametinib”: COC1=CC=C(C=C1)COC2=C(C=C(C=C2)CC3=CN=C(N=C3N)N)OC [GW-2580] + CC(=O)Nc1cccc(-n2c(=O)n(C3CC3)c(=O)c3c(Nc4ccc(I)cc4F)n(C)c(=O)c(C)c32)c1 [Trametinib] (partner 0.02 µM)
In outline:
as §1

Compound in the assay “Fedratinib + Navitoclax”: Cc1cnc(Nc2ccc(OCCN3CCCC3)cc2)nc1Nc1cccc(S(=O)(=O)NC(C)(C)C)c1 [Fedratinib] + CC1(C)CCC(c2ccc(Cl)cc2)=C(CN2CCN(c3ccc(C(=O)NS(=O)(=O)c4ccc(N[C@H](CCN5CCOCC5)CSc5ccccc5)c(S(=O)(=O)C(F)(F)F)c4)cc3)CC2)C1 [Navitoclax] (partner 0.5 µM)
The essentials: as §1

Consider ABC-1, for which the relative viability is 0.339 with Fedratinib + Bortezomib (first compound 0.1 µM); 0.363 in the assay with Fedratinib + Bortezomib (first compound 0.3162 µM); 0.186 with Fedratinib + Bortezomib (first compound 1 µM); 0.741 with Fedratinib + AZD7762 (first compound 0.1 µM); 0.877 with Fedratinib + AZD7762 (first compound 0.3162 µM); 0.792 in the assay with Fedratinib + AZD7762 (first compound 1 µM). Moreover, the relative viability was determined as 0.827 in the assay with Fedratinib (0.1 µM); 0.954 in the assay with Fedratinib (0.3162 µM); 0.816 in the assay with Fedratinib (1 µM); 0.956 with GW-2580 (0.08 µM); 1.14 in the assay with GW-2580 (0.8 µM); 0.869 in the assay with GW-2580 (2.53 µM). Further, the relative viability in the assay with GW-2580 (8 µM) turned out to be 0.883.
Take NCI-H650: the relative viability amounted to 0.84 with Fedratinib + Bortezomib (first compound 0.3162 µM); 0.77 in the assay with Fedratinib + Bortezomib (first compound 1 µM); 0.945 with GW-2580 + Trametinib (first compound 0.08 µM); 1.06 in the assay with GW-2580 + Trametinib (first compound 0.8 µM); 0.953 with GW-2580 + Trametinib (first compound 2.53 µM); 0.907 in the assay with GW-2580 + Trametinib (first compound 8 µM). Moreover, the relative viability with Fedratinib + AZD7762 (first compound 0.1 µM) was 1.17; with Fedratinib + AZD7762 (first compound 0.3162 µM) it was 0.933; with Fedratinib + AZD7762 (first compound 1 µM), 0.755; with Fedratinib (0.1 µM) it was 0.709; with Fedratinib (0.3162 µM) it was 0.892; with Fedratinib (1 µM), 0.418. Also, the relative viability in the assay with GW-2580 (0.08 µM) came out at 0.974; with GW-2580 (0.8 µM), 1.04; in the assay with GW-2580 (2.53 µM), 0.817; in the assay with GW-2580 (8 µM) it was 0.961.
For NCI-H1650, the relative viability in the assay with Fedratinib + Navitoclax (first compound 0.1 µM) was 1.25; in the assay with Fedratinib + Navitoclax (first compound 0.3162 µM), 1.12; with Fedratinib + Navitoclax (first compound 1 µM) it was 1.15; with Fedratinib + Bortezomib (first compound 0.1 µM) it was 0.199; with Fedratinib + Bortezomib (first compound 0.3162 µM), 0.221; in the assay with Fedratinib + Bortezomib (first compound 1 µM), 0.193. Besides, the relative viability with GW-2580 + Trametinib (first compound 0.08 µM) worked out at 0.623; in the assay with GW-2580 + Trametinib (first compound 0.8 µM), 0.533; with GW-2580 + Trametinib (first compound 2.53 µM) it was 0.579; with GW-2580 + Trametinib (first compound 8 µM), 0.599; in the assay with Fedratinib (0.1 µM) it was 0.715; in the assay with Fedratinib (0.3162 µM) it was 1.01. The relative viability came to 0.748 with Fedratinib (1 µM); 1.08 with GW-2580 (0.08 µM); 1.11 in the assay with GW-2580 (0.8 µM); 0.83 in the assay with GW-2580 (2.53 µM); 1.05 with GW-2580 (8 µM).
NCI-H1793: the relative viability stood at 0.295 in the assay with Fedratinib + Navitoclax (first compound 0.1 µM); 0.456 in the assay with Fedratinib + Navitoclax (first compound 0.3162 µM); 0.476 with Fedratinib + Navitoclax (first compound 1 µM); 0.467 with GW-2580 + Trametinib (first compound 0.08 µM); 0.425 with GW-2580 + Trametinib (first compound 0.8 µM); 0.344 with GW-2580 + Trametinib (first compound 2.53 µM). Further, the relative viability in the assay with GW-2580 + Trametinib (first compound 8 µM) was determined as 0.464; with Fedratinib + AZD7762 (first compound 0.1 µM) it was 0.324; in the assay with Fedratinib + AZD7762 (first compound 0.3162 µM), 0.402; in the assay with Fedratinib + AZD7762 (first compound 1 µM), 0.326; with Fedratinib (0.1 µM), 0.884; with Fedratinib (0.3162 µM), 0.886. Besides, the relative viability with Fedratinib (1 µM) stood at 0.619; in the assay with GW-2580 (0.08 µM), 0.95; with GW-2580 (0.8 µM) it was 1.05; in the assay with GW-2580 (2.53 µM) it was 0.711; with GW-2580 (8 µM), 0.852.
For the cell line COR-L 105, the relative viability is 0.568 with Fedratinib + Navitoclax (first compound 0.1 µM); 0.657 with Fedratinib + Navitoclax (first compound 0.3162 µM); 0.689 with Fedratinib + Navitoclax (first compound 1 µM); 0.685 with Fedratinib + Bortezomib (first compound 0.1 µM); 0.839 with Fedratinib + Bortezomib (first compound 0.3162 µM); 0.289 in the assay with Fedratinib + Bortezomib (first compound 1 µM). Further, the relative viability in the assay with GW-2580 + Trametinib (first compound 0.08 µM) was determined as 0.404; with GW-2580 + Trametinib (first compound 0.8 µM), 0.409; with GW-2580 + Trametinib (first compound 2.53 µM) it was 0.418; with GW-2580 + Trametinib (first compound 8 µM), 0.442; with Fedratinib (0.1 µM) it was 0.827; with Fedratinib (0.3162 µM) it was 1.1. Moreover, the relative viability with Fedratinib (1 µM) stood at 0.664; with GW-2580 (0.08 µM), 1.01; with GW-2580 (0.8 µM) it was 1.05; with GW-2580 (2.53 µM), 0.932; with GW-2580 (8 µM) it was 0.908.
Take NCI-H2228: the relative viability with Fedratinib + Navitoclax (first compound 0.1 µM) amounted to 0.631; with Fedratinib + Navitoclax (first compound 0.3162 µM) it was 0.838; in the assay with Fedratinib + Navitoclax (first compound 1 µM), 0.599; with Fedratinib + Bortezomib (first compound 0.1 µM), 1.35; with Fedratinib + Bortezomib (first compound 0.3162 µM), 0.866; in the assay with Fedratinib + Bortezomib (first compound 1 µM), 0.408. For the same cell line, the relative viability with GW-2580 + Trametinib (first compound 0.08 µM) came out at 0.483; with GW-2580 + Trametinib (first compound 0.8 µM) it was 0.51; with GW-2580 + Trametinib (first compound 2.53 µM), 0.364; with GW-2580 + Trametinib (first compound 8 µM) it was 0.511; with Fedratinib (0.1 µM), 0.884; with Fedratinib (0.3162 µM), 0.785. Besides, the relative viability in the assay with Fedratinib (1 µM) was found to be 0.723; with GW-2580 (0.08 µM), 1.18; with GW-2580 (0.8 µM), 1.16; with GW-2580 (2.53 µM), 0.921; with GW-2580 (8 µM), 0.882.
Take SW 900: the relative viability with GW-2580 + Trametinib (first compound 0.08 µM) came out at 0.711; with GW-2580 + Trametinib (first compound 0.8 µM) it was 0.785; with GW-2580 + Trametinib (first compound 2.53 µM) it was 0.759; in the assay with GW-2580 + Trametinib (first compound 8 µM), 0.896; in the assay with Fedratinib + AZD7762 (first compound 0.1 µM), 0.621; with Fedratinib + AZD7762 (first compound 0.3162 µM) it was 0.692. Also, the relative viability amounted to 0.608 with Fedratinib + AZD7762 (first compound 1 µM); 0.78 with Fedratinib (0.1 µM); 0.847 with Fedratinib (0.3162 µM); 0.768 with Fedratinib (1 µM); 0.767 with GW-2580 (0.08 µM); 0.876 with GW-2580 (0.8 µM). Besides, the relative viability with GW-2580 (2.53 µM) stood at 0.833; with GW-2580 (8 µM), 0.771.
Consider NCI-H661, for which the relative viability with Fedratinib + Bortezomib (first compound 0.1 µM) came out at 0.81; with Fedratinib + Bortezomib (first compound 0.3162 µM), 0.894; with Fedratinib + Bortezomib (first compound 1 µM), 0.9; in the assay with GW-2580 + Trametinib (first compound 0.08 µM), 0.678; with GW-2580 + Trametinib (first compound 0.8 µM) it was 0.566; in the assay with GW-2580 + Trametinib (first compound 2.53 µM), 0.516. The relative viability with GW-2580 + Trametinib (first compound 8 µM) was 0.504; with Fedratinib (0.1 µM), 0.876; with Fedratinib (0.3162 µM), 1.06; with Fedratinib (1 µM), 0.914; in the assay with GW-2580 (0.08 µM) it was 1.03; with GW-2580 (0.8 µM), 1.04. The relative viability with GW-2580 (2.53 µM) is 0.951; with GW-2580 (8 µM), 0.814.
